Compound	melting point [°C]
NCC(O)CS(=O)(=O)c1cccs1 (stereo not given)	111 to 113
Nc1ccc(N2CCSCC2)c(Cl)c1	101 to 103
Cn1c(-c2ccccc2)c(C(=O)O)c2ccccc21	192 to 194
O=C1Nc2cc(SCc3ccccc3)ccc2C1=O	248 to 250
Cc1nn(-c2ccc(Cl)cc2)cc1C(=O)O	224 to 226
CC1Cc2c(Br)cccc2C(=O)N1 (stereo not given)	135 to 137
CCN(c1ccccc1)S(=O)(=O)c1ccc(Cl)c([N+](=O)[O-])c1	122 to 124
Cc1ccc(-c2nc(C(=O)O)cs2)c(C)c1	129 to 131
NC(=O)c1ccccc1Oc1cccc(N)c1	129 to 131
CC(C)(C)CCS(N)(=O)=O	91 to 93
Nc1ccccc1C(=O)Nc1ccc2c(c1)OCCO2	117 to 119
CC1CCCCN1S(=O)(=O)c1cccc(C(=O)O)c1 (stereo not given)	149 to 151
CC1NC(=O)c2ccccc2N(C)C1=O (stereo not given)	250 to 252
O=Cc1ccccc1OCc1cccnc1	57 to 59
CC(C#N)CSc1ccccc1NC(=O)CCl (stereo not given)	94 to 96
N#Cc1cnn(-c2ccc(Br)cc2)c1N	177 to 179
OCc1cc(Cl)c2nccn2c1	169 to 171
COc1ccc2c(=O)c(-c3ccccc3)c(C)oc2c1	136 to 138
Cc1c(C(=O)O)cnn1CCC#N	159 to 161
CC(C)c1ccc(-c2nn(-c3ccccc3)cc2C(=O)O)cc1	222 to 224
O=c1[nH]c(CCl)nc2sc3c(c12)CCCC3	265 to 267
NC(=S)NN=Cc1ccccc1Cl	210 to 212
ClCc1nc2ncc(Br)cc2[nH]1	209 to 211

Compound	melting point [°C]
CC(Cl)C(=O)Nc1ccc(I)cc1 (stereo not given)	159 to 161
Cn1cc(CCC(=O)O)c2ccccc21	123 to 125
COC(=O)c1cc(C)c(C)c(S(=O)(=O)Cl)c1	61 to 63
O=C(O)C1(S(=O)(=O)c2ccc(Br)cc2)CCCC1	138 to 140
O=C(c1cccc([N+](=O)[O-])c1)N1CCNCC1	145 to 147
CSc1cnn(-c2ccccc2)c1N	77 to 79
NCc1cc2c(cc1OC(F)F)OCO2	39 to 41
NC(=O)c1ccc(N)cc1F	148 to 150
N#Cc1cnn(-c2ccccc2)c1N	137 to 139
Cc1nn(Cc2c(Cl)cccc2Cl)c2sc(C(=O)O)cc12	282 to 284
Cc1nc(-c2cc(C(=O)O)co2)cs1	186 to 188
O=S(=O)(Cl)c1c(Cl)cccc1C(F)(F)F	36 to 38
CCn1c(NN)nc2ccccc2c1=O	159 to 161
COC(=O)c1cc(F)cc(S(=O)(=O)Cl)c1Br	73 to 75
O=C1CCCS(=O)(=O)C1	141 to 143
COC(=O)COc1c(C)cc(C=O)cc1C	50 to 52
COc1ccc(/C=C/C(=O)O)c(OC)c1	192 to 194
O=C(/C=C/c1ccc2c(c1)CCO2)N1CCCC(CO)C1 (stereo not given)	131 to 133
CCNC(=O)NC(=O)CCl	138 to 140
O=C(CCl)NC(=O)NCCC1=CCCCC1	200 to 202
CC1(C)CC(=O)NC1=O	103 to 105
CCOc1ncc(C(=O)O)cc1Cl	214 to 216
ON=C(C(=NO)c1ccccc1)c1ccccc1	245 to 246

Compound	melting point [°C]
c1ccc(-n2cccn2)nc1	37 to 39
O=C(CN1CCNCC1)Nc1cccc(F)c1	68 to 70
COc1cc(CO)c([N+](=O)[O-])cc1OCC(F)F	107 to 109
Fc1ccc(NCc2ccccn2)cc1	71 to 73
Cc1cc(C)n2nc(C)c(C(=O)O)c2n1	226 to 228
CCOC(=O)Nc1ccc(O)cc1	124 to 126
O=C(O)c1ccc(-c2cccc(Cl)c2)s1	222 to 224
COc1ccc(S)c2ccccc12	142 to 144
Brc1nn2cc(-c3cccnc3)nc2s1	230 to 232
CC(=O)N1CC=C(c2ccc(O)cc2)CC1	188 to 190
Cc1ccc(S(=O)(=O)Nc2ccc(O)cc2)s1	106 to 108
CC(C)(C)c1ccc(NC(N)=S)cc1	153 to 155
CCC(CC)n1nc(C)cc1C(=O)O	149 to 151
O=C(O)CNC(=O)c1ccc(S(=O)(=O)Cl)cc1	130 to 132
Cc1noc(C)c1CC(=O)O	117 to 119
O=C(O)c1c[nH]cc1-c1ccc(F)cc1	199 to 201
O=C(O)/C=C/c1nccs1	182 to 184
CC(=O)CC(=O)Nc1ccccc1C(F)(F)F	60 to 62
O=C(O)c1cnn(-c2cccc(Cl)c2)c1	204 to 206
OCCNCc1cccc(OCc2ccccc2Cl)c1	49 to 50
COc1cc2[nH]nnc2cc1C(=O)O	219 to 221
Nc1nc(Cl)ccc1C(=O)O	216 to 218
CCc1ccc(S(=O)(=O)Cl)cc1C(=O)O	133 to 135

Compound	melting point [°C]
NCCNc1cn[nH]c(=O)c1Cl	195 to 197
Cc1cc2c[nH]nc2c(C(=O)O)c1N	174 to 176
O=C(O)CSCc1cccnc1	109 to 111
O=C1CCC(O)(C(F)(F)F)CC1	123 to 125
Nc1cc(CC2CCCCC2)n[nH]1	72 to 74
CN(C)c1ccc(C(=O)O)nn1	167 to 169
Nc1cccc(CS(=O)c2ccccc2)c1 (stereo not given)	133 to 135
COc1ccc(N)cc1S(=O)(=O)Nc1ccc(Cl)cc1	105 to 107
Fc1ccc(CBr)c2ncccc12	94 to 96
Nc1cc(CC2CC3CCC2C3)no1 (stereo not given)	86 to 88
COc1ccc2c(c1)NCCCC2	46 to 48
CC(C)(C)OC(=O)NCCNC(=O)C1CCCNC1 (stereo not given)	130 to 132
Cc1cc(-c2nc(C3CC3)no2)ccc1N	87 to 89
CS(=O)(=O)Nc1ccccc1N	102 to 104
CC(Cl)C(=O)NC1CCCC1 (stereo not given)	111 to 113
O=C1CCc2cc(OCCO)ccc2N1	180 to 182
CC1CCC2(CC1)NC(=O)NC2=O (stereo not given)	230 to 232
NC1(C(=O)O)CCOC1 (stereo not given)	244 to 246
O=C(O)CCn1cc([N+](=O)[O-])cn1	143 to 145
Cc1cc(Br)ccc1CC(=O)O	111 to 113

The next lines start with the values.

melting point [°C]	Compound
218 to 220	CS(=O)(=O)Cc1c(C(=O)O)oc2ccccc12
54 to 56	Cc1c(N)cccc1COC1CCCCC1
30 to 32	OCc1cc(Br)cs1
334 to 336	Cc1cc(-c2nc3ccccc3n2C)c(=O)[nH]n1
145 to 147	CC(O)(C(=O)O)c1cccc2ccccc12 (stereo not given)
127 to 129	O=C(C(=O)N1CCOCC1)N1CCNCC1
119 to 121	CCN(CC)S(=O)(=O)c1ccc(OC)c(C(=O)O)c1
159 to 161	Cc1occc1-c1nnc(S)n1N
124 to 126	O=C(CCCl)Nc1ccc(Cl)cc1
144 to 146	Nc1ccccc1C(=O)Nc1ccncc1
171 to 173	NNc1cn[nH]c(=O)c1Cl
144 to 146	O=C(O)c1sccc1S(=O)(=O)N1CCSCC1
110 to 114	CCS(=O)(=O)N1Cc2ccccc2CC1C(=O)O (stereo not given)
100 to 102	O=Cc1ccc(Sc2ncccn2)c([N+](=O)[O-])c1
192 to 194	NC(=O)CSc1nnc(S)s1
183 to 185	O=C(O)c1cnn(-c2ccccc2)n1
146 to 148	Cc1nn(-c2ccccc2)c(C(F)(F)F)c1C(=O)O
83 to 85	Cc1ccc(-n2c(C)ccc2C)cc1N
168 to 170	CCOC(=O)c1cnc2nccn2c1

melting point [°C]	Compound
159 to 161	O=C(O)c1ccc2c(c1)S(=O)(=O)N(CC1CCCO1)C2=O (stereo not given)
179 to 181	O=C(O)c1cc(Br)sc1Br
171 to 173	CC(C(=O)O)n1nnnc1C(C)(C)C (stereo not given)
82 to 84	COCCOCC(=O)Nc1cccc(N)c1C
107 to 109	Cc1nn(C)c(C)c1NC(=O)CCl
144 to 146	COc1cccc(C(=O)NN)c1O
68 to 75	N#CCC(=O)NCCN1CCOCC1
210 to 212	Nc1ccc2c(c1)NC(=O)CC2
256 to 258	NS(=O)(=O)c1ccc(F)c2ncccc12
133 to 135	CCCC(NC(=O)Cc1ccccc1)C(=O)O (stereo not given)
92 to 94	O=S(=O)(Cl)c1cc2c(cc1Cl)OCCCO2
94 to 96	CNS(=O)(=O)c1ccc(I)cc1
220 to 222	O=C(O)CC1=C(c2cccs2)N2CCN=C2S1
64 to 66	CCOC(=O)c1cc(C)nc2onc(C)c12
231 to 233	O=C(O)C1CCn2ccnc2C1 (stereo not given)
195 to 197	CC(C)(C)c1cc(C(=O)O)[nH]n1
171 to 173	NC(=O)c1ccsc1NC(=O)CCCl
71 to 73	NNC(=O)C1CCS(=O)(=O)C1 (stereo not given)
219 to 221	COc1c([N+](=O)[O-])ccc2[nH]ncc12

melting point [°C]	Compound
48 to 50	CCOC(=O)c1cc(Br)cc(F)c1N
344 to 346	N#Cc1ccc2nc(N)ncc2c1
127 to 129	COc1ccccc1NC(=O)c1ccccc1NC(=O)CCC(=O)O
136 to 138	O=C(O)Cc1csc(-c2ccco2)n1
135 to 137	c1cc2c(cn1)NCCN2
270 to 275	Sc1nnc(-c2ccncc2)o1
77 to 79	Cc1cc(C=O)c(C)n1-c1ccnn1C(C)C
148 to 150	CC(C)c1nnc(CC#N)[nH]1
113 to 115	CC1(C)NCCNC1=O
107 to 109	Cc1ccc(S(=O)(=O)N2CCCCC2)cc1NC(=O)CCl
229 to 231	O=S(=O)(Nc1nccs1)c1ccc(Cl)nc1
115 to 117	Cc1ccc(NC2C=CS(=O)(=O)C2)cc1 (stereo not given)
107 to 109	COC(=O)c1cnc(-c2ccccc2)s1
91 to 93	O=c1[nH]c(C(F)(F)F)cs1
170 to 172	O=C(O)c1nccnc1C(=O)NCc1ccc(F)cc1
97 to 99	O=Cc1cn(-c2ccccc2)nn1
73 to 75	NC(=O)c1cccnc1NC1CCN(Cc2ccccc2)CC1
168 to 170	COc1cc(N)c(C(=O)O)cc1OC(F)F

From a melting point compilation (Tetko et al.)
